US9657273B2, “Method for suppressing teratoma formation via selective cell death induction in undifferentiated human-induced pluripotent stem cells” (Industry-University Cooperation Foundation Sogang University, priority 2012, dated 2017)
Entries after “also recorded” stand apart in the source; their conditions may differ.

Key:
[1] = tested on: human induced pluripotent stem cells (iPS); experiment: Immunoblotting of apoptosis marker proteins in cell lysate; format: cell-based; conditions: 50 μM quercetin, 24 hours
Description: The antibodies used in the immunoblotting assay and anti-PARP1 (SC-7150) and anti-β-actin (SC-47778) were purchased from Santa Cruz Biotech Inc. (CA, USA). Additionally, anti-caspase-9 (Cat#9502) and anti-cleaved caspase-3 (Cat#9661) purchased from Cell Signaling Technology (Danvers, Mass., USA). In order to confirm the selective apoptosis of undifferentiated human induced pluripotent stem cells by quercetin, human induced pluripotent stem cells (iPS) derived from human aortic smooth muscle cells (HASMC), HASMC, smooth muscle cell no. 1 differentiated-derived from iPS (iPS-SMC-1), and smooth muscle cell no.

[2] = tested on: human induced pluripotent stem cells (iPS); experiment: Apoptosis-specific cell phenotype observed under microscope; format: cell-based
Description: Human induced pluripotent stem cells (iPS) derived from human aortic smooth muscle cells (HASMC) was subcultured in an ESC medium (DMEM/F/12 supplemented with a 20% KnockOutTM serum replacement, 0.1% gentamycin, 1% non-essential amino acids, 0.1% β-mercaptoethanol and 4 ng/ml bFGF) containing mouse embryonic fibroblasts (MEF) treated with mitomycin-C as supporting cells Lee, T. H., et al., (2010). Functional recapitulation of smooth muscle cells via induced pluripotent stem cells from human aortic smooth muscle cells. Circ Res 106, 120-128). For the pretreatment of quercetin and YM-155 of the present invention, iPS was cultured in a matrigel-coated 60 mm dish containing […]1 medium (29106, Stem Cell Technology) to induce them into smooth muscle cells (SMC). Human aortic smooth muscle cells (HASMC) and human induced pluripotent stem cells-derived differentiated cells, i.e., human induced pluripotent stem cells-derived smooth muscle cells (iPS-SMC) were cultured in an SMCM medium (ScienCell research laboratories, cat #1101) as described in the reference (Lee et al., 2010). In order to confirm the selective apoptosis of undifferentiated human induced pluripotent stem cells by quercetin, human induced pluripotent stem cells (iPS) derived from human aortic smooth muscle cells (HASMC), HASMC, smooth muscle cell no. 1 differentiated-derived from iPS (iPS-SMC-1), and smooth muscle cell no. […]

[3] = tested on: iPS-SMC1 and iPS-SMC3; experiment: Measurement of intracellular calcium (Fura-2) after ATP or 75 mM K+; format: cell-based, human; conditions: 50 μM quercetin, 24 hours, then ATP or 75 mM potassium solution
Description: In order to confirm the functions of the differentiated cells which were completely differentiated into smooth muscle cells, an intracellular calcium reaction was used. As described in the reference article (Lee et al., 2006), intracellular or extracellular calcium transients were induced using pharmacological reagents, ATP or 75 mM K^+ solution, and the values were numerized in fluorescence using a calcium indicator Fura-2 (Molecular Probes, Eugene, Oreg.), and imaged.

[4] = tested on: HASMC and iPS-SMC3; experiment: α-SMA expression by immunofluorescence; format: cell-based, human; conditions: 50 μM quercetin, 24 hours
Description: Human aortic smooth muscle cells (HASMC) and human induced pluripotent stem cells-derived differentiated cells, i.e., human induced pluripotent stem cells-derived smooth muscle cells (iPS-SMC) were cultured in an SMCM medium (ScienCell research laboratories, cat #1101) as described in the reference (Lee et al., 2010). As the first antibody used in IFA was anti-α-smooth muscle actin (α-SMA) (Dako Inc, Carpinteria, Calif.). Images were obtained using Axioscope A1 microscope (Carl Zeiss) and analyzed.

[5] = tested on: undifferentiated induced pluripotent stem cells; experiment: Selective cell death of undifferentiated induced pluripotent stem cells (summary statement); format: cell-based, human; conditions: treatment of induced pluripotent stem cells; differentiated cells not affected
Description: The present inventors have made intensive efforts to develop a method for obtaining pure differentiated cells from induced pluripotent stem cells, and in particular, a method for obtaining only the pure differentiated cells by removing the possibility of a tumor formation by the undifferentiated induced pluripotent stem cells causing teratoma formation.

[6] = tested on: mixed cell population of human induced pluripotent stem cells-smooth muscle cells; experiment: Cleaved caspase-3 immunostaining in 1:1 mixed iPS / iPS-derived smooth muscle cell culture; format: cell-based; conditions: 50 μM quercetin, 24 hours; 1:1 mixture of iPS and iPS-derived SMC
Description: The scale bar denotes 100 μm. […] In order to confirm the functions of smooth muscle cells differentiated-derived from human induced pluripotent stem cells, the population, which was cultured by mixing human induced pluripotent stem cells and the smooth muscle cells differentiated-derived from the human induced pluripotent stem cells in a 1:1 ratio, was treated with 50 μM quercetin for 24 hours, and examined the cleavage type caspase-3 positive population in the population of SMA-positive population or SSEA-4-positive population.

O=c1c(O)c(-c2ccc(O)c(O)c2)oc2cc(O)cc(O)c12 [quercetin, 2-(3,4-dihydroxyphenyl)-3,5,7-trihydroxy-4H-chromen-4-one]
apoptosis marker proteins: cleavage of Parp-1, cleaved caspase-3 and caspase-9 [1]: exhibited the expression of Parp-1 cleavage (T type), cleavage types of caspase-3 and caspase-9 | apoptosis-specific phenotypic cell type ([2]; 50 μM quercetin, 24 hours, iPS vs HASMC, iPS-SMC-1, iPS-SMC-3): exhibited a distinct apoptosis-specific cell phenotype; also recorded: distinctive apoptosis-specific phenotypic cell type was discovered | degree of apoptosis (apoptosis-specific phenotypic cell type) at various concentrations ([2]; various concentrations of quercetin (QC), iPS): concentration-dependent | intracellular calcium response (function as smooth muscle cells) [3]: confirmed the functions as smooth muscle cells | expression of α-SMA (immunofluorescence) [4]: the expression of α-SMA was confirmed | selective killing of undifferentiated induced pluripotent stem cells [5]: only the undifferentiated induced pluripotent stem cells were effectively and selectively killed | cleavage type caspase-3 positive population in SSEA-4-positive vs SMA-positive population [6]: excellent cleavage type caspase-3 positive population within the SSEA-4 positive population
